# From ChEMBL document CHEMBL1129155, “Synthesis and antibacterial activity of cephalosporins having hydroxamic acid at C-7 position” (1996)
# Legend:
# Format in all cases: functional
# Staphylococcus aureus [1] = assay: Compound was evaluated for antibacterial activity against Staphylococcus aureus Smith.
# Streptococcus pneumoniae = assay: Compound was evaluated for antibacterial activity against Streptococcus pneumoniae type I.
# Escherichia coli [2] = assay: Compound was evaluated for antibacterial activity against Escherichia coli DC 0.
# Klebsiella pneumoniae = assay: Compound was evaluated for antibacterial activity against Klebsiella pneumoniae NCTC 9632.
# Staphylococcus aureus [3] = assay: Compound was evaluated for antibacterial activity against Staphylococcus aureus C2379 (MRSA).
# Pseudomonas aeruginosa [4] = assay: Compound was evaluated for antibacterial activity against Pseudomonas aeruginosa 1771M.
# Proteus vulgaris = assay: Compound was evaluated for antibacterial activity against Proteus vulgaris GN76.
# Pseudomonas aeruginosa [5] = assay: Compound was evaluated for antibacterial activity against Pseudomonas aeruginosa 1771.
# Pseudomonas aeruginosa [6] = assay: Compound was evaluated for antibacterial activity against Pseudomonas aeruginosa 9027.
# Streptococcus pyogenes = assay: Compound was evaluated for antibacterial activity against Streptococcus pyogenes A77.
# Pseudomonas aeruginosa [7] = assay: Compound was evaluated for antibacterial activity against Pseudomonas aeruginosa C-1198.
# Serratia marcescens = assay: Compound was evaluated for antibacterial activity against Serratia marcescens IFO 12648.
# Enterobacter cloacae = assay: Compound was evaluated for antibacterial activity against Enterobacter cloacae P99.
# Escherichia coli [8] = assay: Compound was evaluated for antibacterial activity against Escherichia coli DC 2.
SMILES,MIC (Staphylococcus aureus [1]),MIC (Streptococcus pneumoniae),MIC (Escherichia coli [2]),MIC (Klebsiella pneumoniae),MIC (Staphylococcus aureus [3]),MIC (Pseudomonas aeruginosa [4]),MIC (Proteus vulgaris),MIC (Pseudomonas aeruginosa [5]),MIC (Pseudomonas aeruginosa [6]),MIC (Streptococcus pyogenes),MIC (Pseudomonas aeruginosa [7]),MIC (Serratia marcescens),MIC (Enterobacter cloacae),MIC (Escherichia coli [8])
CC(=O)N(O)CCO/N=C(\C(=O)N[C@@H]1C(=O)N2C(C(=O)O)=C(CSc3nc(C)c(CC(=O)O)s3)CS[C@H]12)c1csc(N)n1,12.5 µg/mL,0.049 µg/mL,0.781 µg/mL,0.098 µg/mL,100 µg/mL,0.391 µg/mL,0.049 µg/mL,3.12 µg/mL,12.5 µg/mL,0.013 µg/mL,50 µg/mL,1.56 µg/mL,50 µg/mL,0.098 µg/mL
CC(=O)N(O)CCO/N=C(\C(=O)N[C@@H]1C(=O)N2C(C(=O)[O-])=C(CSc3cccc4[n+]3CCN4)CS[C@H]12)c1csc(N)n1,1.56 µg/mL,0.025 µg/mL,1.56 µg/mL,0.025 µg/mL,12.5 µg/mL,3.12 µg/mL,3.12 µg/mL,3.12 µg/mL,12.5 µg/mL,0.025 µg/mL,50 µg/mL,3.12 µg/mL,50 µg/mL,1.56 µg/mL
CC(=O)N(O)CCO/N=C(\C(=O)N[C@@H]1C(=O)N2C(C(=O)[O-])=C(C[n+]3ccc(CN(O)C(C)=O)cc3)CS[C@H]12)c1csc(N)n1,12.5 µg/mL,0.049 µg/mL,12.5 µg/mL,0.781 µg/mL,50 µg/mL,6.25 µg/mL,6.25 µg/mL,25 µg/mL,50 µg/mL,0.007 µg/mL,> 100 µg/mL,12.5 µg/mL,50 µg/mL,0.391 µg/mL
CC(C)(O/N=C(\C(=O)N[C@@H]1C(=O)N2C(C(=O)[O-])=C(C[n+]3ccccc3)CS[C@H]12)c1csc(N)n1)C(=O)O [CEFTAZIDIME],6.25 µg/mL,0.195 µg/mL,0.195 µg/mL,0.049 µg/mL,50 µg/mL,0.391 µg/mL,0.049 µg/mL,0.781 µg/mL,3.12 µg/mL,0.098 µg/mL,> 100 µg/mL,0.098 µg/mL,> 100 µg/mL,0.098 µg/mL

# Now from value to compound:
MIC (Staphylococcus aureus [1]),MIC (Streptococcus pneumoniae),MIC (Escherichia coli [2]),MIC (Klebsiella pneumoniae),MIC (Staphylococcus aureus [3]),MIC (Pseudomonas aeruginosa [4]),MIC (Proteus vulgaris),MIC (Pseudomonas aeruginosa [5]),MIC (Pseudomonas aeruginosa [6]),MIC (Streptococcus pyogenes),MIC (Pseudomonas aeruginosa [7]),MIC (Serratia marcescens),MIC (Enterobacter cloacae),MIC (Escherichia coli [8]),SMILES
3.12 µg/mL,0.049 µg/mL,0.781 µg/mL,0.098 µg/mL,12.5 µg/mL,0.391 µg/mL,0.781 µg/mL,0.781 µg/mL,6.25 µg/mL,0.007 µg/mL,25 µg/mL,0.391 µg/mL,25 µg/mL,0.195 µg/mL,CC(=O)N(O)CCO/N=C(\C(=O)N[C@@H]1C(=O)N2C(C(=O)[O-])=C(C[n+]3ccccc3)CS[C@H]12)c1csc(N)n1
0.781 µg/mL,0.025 µg/mL,0.391 µg/mL,0.195 µg/mL,6.25 µg/mL,0.781 µg/mL,1.56 µg/mL,1.56 µg/mL,6.25 µg/mL,0.004 µg/mL,50 µg/mL,0.781 µg/mL,25 µg/mL,0.195 µg/mL,CC(=O)N(O)CCO/N=C(\C(=O)N[C@@H]1C(=O)N2C(C(=O)[O-])=C(C[n+]3cccc4c3CCC4)CS[C@H]12)c1csc(N)n1
